Experimental data from article PMC11785708, “Design and synthesis of new quinazolinone derivatives: investigation of antimicrobial and biofilm inhibition effects” (Molecular Diversity, 2024).
Values after ≈ are worked out from the molar mass of the structure shown. Values joined by “and” are separate entries in the source; they are usually repeats but may differ in a detail not shown here. Equal entries are not always repeated.

Experiments:
C. albicans ATCC 10231 [1] = assay: MIC determination, C. albicans; type: cell-based, Candida albicans; settings: serial dilutions, triplicate; for MIC: Candida albicans, ATCC10231
Method: (§1) Serial dilutions of the test compounds were tested to determine their MIC against the most susceptible organisms. The MIC was expressed as the lowest concentration which inhibited the visible growth of the corresponding microorganism. All assays were performed in triplicate.

C. albicans ATCC 10231 [2] = assay: Agar well diffusion, C. albicans; type: cell-based; settings: Candida albicans, ATCC10231; 100 μl of test compound 20 mg/ml in DMF; ciprofloxacin and fluconazole 30 μg/ml; 24 h; mean ± SD; read-out: diameters of inhibition zone, C. albicans ATCC 10231
Method: (§2) The antimicrobial activity was tested against Gram positive bacteria: Bacillus cereus (B. cereus ATCC 6629), Bacillus subtilis (B. subtilis ATCC 6633), Staphylococcus aureus (S. aureus ATCC 6538), Gram negative bacteria: Klebsiella pneumoniae (K. pneumoniae ATCC 13883), Pseudomonas aeruginosa (P. aeruginosa ATCC 27953) and Candida albicans (C. albicans ATCC 10231). Glycerol stocks were thawed upon need and propagated into nutrient broth at 37 °C. The antibacterial activity of the compounds 9-32 was carried out in vitro using the agar well diffusion method, originally reported by […] and Bauer and coworkers and described by the National Committee for Clinical Laboratory Standards (NCCLS). Bacterial strains, adjusted at […] (equivalent to 0.5 McFarland), were used to inoculate nutrient agar plates. 9-mm diameter wells were punched into the solidified nutrient agar plates using sterile cork borer and 100 μl samples of the test compounds, dissolved in dimethyl formamide (DMF) at 20 mg/ml concentrations, were added and allowed to diffuse at 4 °C for 2 h. Subsequently, the plates were incubated overnight in an upright position at 37 °C. DMF was used as a negative control while ciprofloxacin and fluconazole (30 μg/ml) served as positive controls. After 24 h incubation, the diameters of the growth inhibition zones were recorded in mm. Data was expressed as mean ± standard deviation of three replicates.

B. cereus ATCC 6629 [3] = assay: MIC determination, B. cereus; type: cell-based, Bacillus cereus; settings: Bacillus cereus, ATCC6629; serial dilutions, triplicate
Method: as §1

S. aureus ATCC 6538 [4] = assay: Agar well diffusion, S. aureus; type: cell-based; settings: Staphylococcus aureus, ATCC6538; 100 μl of test compound 20 mg/ml in DMF; ciprofloxacin and fluconazole 30 μg/ml; 24 h; mean ± SD; read-out: diameters of inhibition zone, S. aureus ATCC 6538
Method: as §2

P. aeruginosa ATCC 27953 [5] = assay: MIC determination, P. aeruginosa; type: cell-based, Pseudomonas aeruginosa; settings: serial dilutions, triplicate; for MIC: Pseudomonas aeruginosa, ATCC27953
Method: as §1

S. aureus ATCC 6538 [6] = assay: MIC determination, S. aureus; type: cell-based, Staphylococcus aureus; settings: serial dilutions, triplicate; for MIC: Staphylococcus aureus, ATCC6538
Method: as §1

Cell viability MTT assay = type: cell-based; settings: human, BJ1 cells (normal skin fibroblasts)
Method: Cell viability testing at 5 mg/ml was carried out by colorimetric MTT assay on human normal cell line BJ1 (skin fibroblasts) to investigate the toxicity of the most broad spectrum derivatives 9, 15, 16, 18, 19, 20 and 29 (Table 3). The viability of the cells treated with the aforementioned derivatives was more than 87% at 5 mg/ml concentration. This gives indication that the compounds are tolerated and nontoxic for human cells, as the cytotoxic dose was higher than the therapeutic dose on most of microorganisms. It is worth mentioning that the safe limit of the percent of dead cells is not an absolute value and could be more than 10% as reported in previous studies.
The most broad spectrum compounds were evaluated for their cytotoxic activity against BJ1 cell line using colorimetric MTT [3-(4,5-dimethylthiazol-2-yl)-2,5-diphenyltetrazolium bromide] assay.

B. cereus ATCC 6629 [7] = assay: Agar well diffusion, B. cereus; type: cell-based; settings: Bacillus cereus, ATCC6629; 100 μl of test compound 20 mg/ml in DMF; ciprofloxacin and fluconazole 30 μg/ml; 24 h; mean ± SD; read-out: diameters of inhibition zone, B. cereus ATCC 6629
Method: as §2

P. aeruginosa ATCC 27953 [8] = assay: Agar well diffusion, P. aeruginosa; type: cell-based; settings: Pseudomonas aeruginosa, ATCC27953; 100 μl of test compound 20 mg/ml in DMF; ciprofloxacin and fluconazole 30 μg/ml; 24 h; mean ± SD; read-out: diameters of inhibition zone, P. aeruginosa ATCC 27953
Method: as §2

K. pneumoniae ATCC 13883 [9] = assay: MIC determination, K. pneumoniae; type: cell-based, Klebsiella pneumoniae; settings: Klebsiella pneumoniae, ATCC13883; serial dilutions, triplicate
Method: as §1

B. subtilis ATCC 6633 [10] = assay: MIC determination, B. subtilis; type: cell-based, Bacillus subtilis; settings: Bacillus subtilis, ATCC6633; serial dilutions, triplicate
Method: as §1

K. pneumoniae ATCC 13883 [11] = assay: Agar well diffusion, K. pneumoniae; type: cell-based; settings: Klebsiella pneumoniae, ATCC13883; 100 μl of test compound 20 mg/ml in DMF; ciprofloxacin and fluconazole 30 μg/ml; 24 h; mean ± SD; read-out: diameters of inhibition zone, K. pneumoniae ATCC 13883
Method: as §2

P. aeruginosa ATCC 27953 [12] = assay: Bacterial cell surface hydrophobicity (CSH) assay (MATH / BATH); type: cell-based, Pseudomonas aeruginosa; settings: increasing concentrations, toluene partition (Fig. 6)
Method: The effect of the test compounds 19 and 20 on cell surface hydrophobicity was investigated via the microbial or bacterial adherence to hydrocarbons (MATH / BATH) assay. Exponentially growing culture of P. aeruginosa ATCC 27953 incubated with or without test compounds were centrifuged, the pellets were re-suspended and OD600 was measured using UV/Vis spectrophotometer (Jasco V-630, Tokyo, Japan) to give Ao. The re-suspended cells were vigorously mixed with toluene followed by measuring the OD600 of the aqueous phase to give At. The hydrophobicity index was calculated as follows: Hydrophobicityindex=Ao-At/Ao×100

P. aeruginosa ATCC 27953 [13] = assay: Biofilm inhibition assay (crystal violet); type: cell-based; settings: Pseudomonas aeruginosa, ATCC27953, P. aeruginosa ATCC 27953, 24 h
Method: Compounds with potential activity against P. aeruginosa ATCC 27953 were tested for the respective biofilm inhibition. The assay was carried out in microtiter plate setup using crystal violet (CV) staining of adherent cells, as modified from.
After 24 h cultivation, the supernatant and planktonic cells were discarded, wells were washed with phosphate buffered saline (PBS) and biofilms were stained with 0.1% CV. CV was subsequently washed then, solubilized with 33% (v/v) glacial acetic acid. The absorbance was measured at 540 nm using SPECTROstar® Nano microplate reader (BMG LABTECH GmbH, Germany). The experiments were performed in triplicate and independently repeated three times. GraphPad Prism 6.0 software was used to estimate the IC50 values, which correspond to […].

B. subtilis ATCC 6633 [14] = assay: Agar well diffusion, B. subtilis; type: cell-based; settings: Bacillus subtilis, ATCC6633; 100 μl of test compound 20 mg/ml in DMF; ciprofloxacin and fluconazole 30 μg/ml; 24 h; mean ± SD; read-out: diameters of inhibition zone, B. subtilis ATCC 6633
Method: as §2

P. aeruginosa ATCC 27953 [15] = assay: Inhibition of exopolysaccharide (EPS) production; type: cell-based, Pseudomonas aeruginosa; settings: means ± standard errors
Method: The inhibition of exopolysaccharide production by P. aeruginosa ATCC 27953 using quinazolinone derivatives was assessed according to total carbohydrate measurement.
P. aeruginosa’s biofilm was grown in the presence or absence of compounds (19, 20). Cells were incubated for 1 h with an equal volume of 5% (v/v) phenol and 5 × volume of concentrated sulfuric acid containing 0.2% (w/v) hydrazine sulphate then centrifuged at 10,000 g for 10 min (Z 326 K, HERMLE Labortechnik GmbH, Wehingen, Germany). The optical density of the supernatant was measured at 490 nm and the reduction in EPS was calculated as follows: EPSquantification%=OD490ofcontrol-OD490oftest/OD490ofcontrol×100

[16] = tested on: Pseudomonas aeruginosa ATCC 27953; assay: Twitching motility assay; type: cell-based; settings: highest tested concentration (= MIC)
Method: 5 µL of overnight-grown bacteria were stab-inoculated into Luria Bertani (LB) soft or quasi-solid plates containing 0.3% agar mixed with different concentrations of compounds 19, 20 and further incubated overnight in an upright position. The visible detectable distance of corrugated trails of twitching zones, away from the inoculation center at the petri dish-agar interface, was measured afterwards. The results were recorded as the average of several diameters’ measurements. DMF was used as a negative control. The experiments were performed in triplicate and represented as the mean of three measurements.

| melting point [°C] | MIC (C. albicans ATCC 10231 [1]) [µg/mL] | MIC (S. aureus ATCC 6538 [6]) [µg/mL] | SMILES | zone of inhibition at 20000 µg/mL (C. albicans ATCC 10231 [2]) [mm] | MIC (B. cereus ATCC 6629 [3]) [µg/mL] | zone of inhibition at 20000 µg/mL (S. aureus ATCC 6538 [4]) [mm] | MIC (P. aeruginosa ATCC 27953 [5]) [µg/mL] | viability at 5 mg/ml (Cell viability MTT assay) [%] | zone of inhibition at 20000 µg/mL (B. cereus ATCC 6629 [7]) [mm] | zone of inhibition at 20000 µg/mL (P. aeruginosa ATCC 27953 [8]) [mm] | MIC (K. pneumoniae ATCC 13883 [9]) [µg/mL] | MIC (B. subtilis ATCC 6633 [10]) [µg/mL] | zone of inhibition at 20000 µg/mL (K. pneumoniae ATCC 13883 [11]) [mm] | zone of inhibition at 20000 µg/mL (B. subtilis ATCC 6633 [14]) [mm] | other results |
| --- | --- | --- | --- | --- | --- | --- | --- | --- | --- | --- | --- | --- | --- | --- | --- |
| 138 | 10000 ± 500 (≈ 27.3 mM) | 500 (≈ 1.36 mM) | O=c1c2ccccc2nc(CN2CCCC2)n1N=Cc1ccc(Cl)cc1 [Compound 16, 3-[(4-Chlorobenzylidene)amino]-2-(pyrrolidin-1-ylmethyl).quinazolin-4(3H)-one] | 13 ± 0.29 | 2000 ± 140 (≈ 5.45 mM) | 12 ± 0.08 | 1500 (≈ 4.09 mM) | 93.5 ± 1.54 | 13 ± 0.14 | 17 ± 0.26 |  |  |  |  | MIC, S. aureus ATCC 6538 (S. aureus ATCC 6538 [6]): 500 ± 0 µg/mL (≈ 1.36 mM) |
| 108 to 110 | 5000 (≈ 15 mM) | 2000 ± 290 (≈ 6.02 mM) | O=c1c2ccccc2nc(CN2CCCC2)n1N=Cc1ccccc1 [Compound 15, 3-(Benzylideneamino)-2-(pyrrolidin-1-ylmethyl)quinazolin-4(3H)-one] | 11 ± 0.11 |  | 12 ± 0.26 |  | 88.4 ± 0.91 |  |  | 2000 (≈ 6.02 mM) | 2000 ± 290 (≈ 6.02 mM) | 13 ± 0.41 | 10 ± 0.33 | MIC, C. albicans ATCC 10231 (C. albicans ATCC 10231 [1]): 5000 ± 290 µg/mL (≈ 15 mM) |

| SMILES | melting point [°C] | MIC (C. albicans ATCC 10231 [1]) [µg/mL] | MIC (S. aureus ATCC 6538 [6]) [µg/mL] | zone of inhibition at 20000 µg/mL (C. albicans ATCC 10231 [2]) [mm] | MIC (B. cereus ATCC 6629 [3]) [µg/mL] | zone of inhibition at 20000 µg/mL (S. aureus ATCC 6538 [4]) [mm] | MIC (P. aeruginosa ATCC 27953 [5]) [µg/mL] | viability at 5 mg/ml (Cell viability MTT assay) [%] | zone of inhibition at 20000 µg/mL (B. cereus ATCC 6629 [7]) [mm] | zone of inhibition at 20000 µg/mL (P. aeruginosa ATCC 27953 [8]) [mm] | MIC (K. pneumoniae ATCC 13883 [9]) [µg/mL] | MIC (B. subtilis ATCC 6633 [10]) [µg/mL] | zone of inhibition at 20000 µg/mL (K. pneumoniae ATCC 13883 [11]) [mm] | zone of inhibition at 20000 µg/mL (B. subtilis ATCC 6633 [14]) [mm] | other results |
| --- | --- | --- | --- | --- | --- | --- | --- | --- | --- | --- | --- | --- | --- | --- | --- |
| COc1cc(C=Nn2c(CN3CCCC3)nc3ccccc3c2=O)cc(OC)c1OC [Compound 19, 2-(Pyrrolidin-1-ylmethyl)-3-[(3,4,5-trimethoxybenzylidene)amino]quinazolin-4(3H)-one] | 166 |  |  |  | 10000 ± 500 (≈ 23.7 mM) |  | 150 (≈ 0.355 mM) | 92.3 ± 3.37 | 17 ± 0.22 | 16 ± 0.18 | 1000 ± 290 (≈ 2.37 mM) | 1000 ± 290 (≈ 2.37 mM) | 18 ± 0.24 | 14 ± 0.31 | effect on hydrophobicity index (CSH) (P. aeruginosa ATCC 27953 [12]): no evident effect on CSH; IC50 (P. aeruginosa ATCC 27953 [13]): 3.55 µM and 1.5 µg/mL; MIC, P. aeruginosa ATCC 27953 (P. aeruginosa ATCC 27953 [5]): 150 ± 60 µg/mL (≈ 0.355 mM); % EPS inhibition (P. aeruginosa ATCC 27953 [15]; 1/4 MIC): 54.15 ± 4.00%; % EPS inhibition (P. aeruginosa ATCC 27953 [15]; 1 MIC): 55.93 ± 3.31%; % EPS inhibition (P. aeruginosa ATCC 27953 [15]; 2 MIC): 63.79 ± 2.70%; change in twitching zone diameter [16]: 30% |
